Experiments:
[1] = molecular target: 1-phosphatidylinositol 3-phosphate 5-kinase (Homo sapiens) (UniProt Q9Y2I7)
[2] = molecular target: T1, Serine/threonine-protein kinase TAO2 (Homo sapiens) (UniProt Q9UL54)
T1 sequence (whole entry): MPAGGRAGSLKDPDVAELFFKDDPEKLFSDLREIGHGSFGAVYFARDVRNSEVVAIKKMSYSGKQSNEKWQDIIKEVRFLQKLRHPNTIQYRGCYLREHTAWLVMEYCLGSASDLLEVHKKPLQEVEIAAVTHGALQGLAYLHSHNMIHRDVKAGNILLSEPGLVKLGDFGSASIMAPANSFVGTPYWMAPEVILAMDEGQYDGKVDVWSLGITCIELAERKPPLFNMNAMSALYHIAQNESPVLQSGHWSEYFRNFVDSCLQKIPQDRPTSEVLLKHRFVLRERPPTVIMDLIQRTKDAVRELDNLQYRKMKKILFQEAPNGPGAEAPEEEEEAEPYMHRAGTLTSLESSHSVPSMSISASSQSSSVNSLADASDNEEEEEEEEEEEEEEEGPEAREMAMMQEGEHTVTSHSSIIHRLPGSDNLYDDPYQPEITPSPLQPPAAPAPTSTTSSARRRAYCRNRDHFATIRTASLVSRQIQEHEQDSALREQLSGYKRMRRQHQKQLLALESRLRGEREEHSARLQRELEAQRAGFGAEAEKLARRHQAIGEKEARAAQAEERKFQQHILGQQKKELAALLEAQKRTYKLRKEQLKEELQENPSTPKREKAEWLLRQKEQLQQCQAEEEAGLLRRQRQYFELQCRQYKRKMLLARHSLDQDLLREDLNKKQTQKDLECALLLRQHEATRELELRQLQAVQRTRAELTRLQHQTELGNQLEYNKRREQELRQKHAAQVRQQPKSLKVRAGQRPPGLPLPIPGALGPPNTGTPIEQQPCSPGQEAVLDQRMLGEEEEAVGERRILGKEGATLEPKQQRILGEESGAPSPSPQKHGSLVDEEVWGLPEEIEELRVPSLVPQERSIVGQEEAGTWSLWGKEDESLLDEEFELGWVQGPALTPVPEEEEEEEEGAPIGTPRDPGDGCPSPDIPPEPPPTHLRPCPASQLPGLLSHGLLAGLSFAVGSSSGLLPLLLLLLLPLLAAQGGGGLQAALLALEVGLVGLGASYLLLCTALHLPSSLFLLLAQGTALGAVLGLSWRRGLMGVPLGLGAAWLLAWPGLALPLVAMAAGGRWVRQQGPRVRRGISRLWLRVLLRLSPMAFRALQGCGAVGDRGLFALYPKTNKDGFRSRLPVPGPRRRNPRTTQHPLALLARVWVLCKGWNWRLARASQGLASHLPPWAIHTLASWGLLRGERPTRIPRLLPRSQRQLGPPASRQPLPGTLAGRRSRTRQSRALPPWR

[3] = molecular target: Protein-tyrosine kinase 2-beta (Homo sapiens) (UniProt Q14289)
[4] = molecular target: Casein kinase I isoform delta (Homo sapiens) (UniProt P48730)
[5] = molecular target: Phosphatidylinositol 4,5-bisphosphate 3-kinase catalytic subunit gamma isoform (Homo sapiens) (UniProt P48736)
[6] = molecular target: Serine/threonine-protein kinase NIM1 (Homo sapiens) (UniProt Q8IY84)
[7] = molecular target: Serine/threonine-protein kinase WNK3 (Homo sapiens) (UniProt Q9BYP7)
[8] = molecular target: MAP/microtubule affinity-regulating kinase 3 (Homo sapiens) (UniProt P27448)
[9] = molecular target: Receptor-type tyrosine-protein kinase FLT3 (Homo sapiens) (UniProt P36888)
[10] = molecular target: Mitogen-activated protein kinase kinase kinase 19 (Homo sapiens) (UniProt Q56UN5)
[11] = molecular target: T2, Aurora kinase A (Homo sapiens) (UniProt O14965)
T2 sequence (whole entry): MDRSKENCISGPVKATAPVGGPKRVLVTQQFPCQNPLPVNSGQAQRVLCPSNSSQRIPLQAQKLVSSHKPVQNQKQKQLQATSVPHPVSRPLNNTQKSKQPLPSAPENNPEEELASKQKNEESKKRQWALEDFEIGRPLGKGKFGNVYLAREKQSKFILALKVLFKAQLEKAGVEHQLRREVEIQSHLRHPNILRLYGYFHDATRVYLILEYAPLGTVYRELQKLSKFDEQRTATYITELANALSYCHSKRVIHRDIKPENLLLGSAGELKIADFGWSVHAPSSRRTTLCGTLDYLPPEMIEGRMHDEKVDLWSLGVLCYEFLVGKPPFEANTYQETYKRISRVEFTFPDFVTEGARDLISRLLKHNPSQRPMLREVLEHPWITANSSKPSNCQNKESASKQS

[12] = molecular target: Serine/threonine-protein kinase RIO2 (Homo sapiens) (UniProt Q9BVS4)
[13] = molecular target: Insulin-like growth factor 1 receptor (Homo sapiens) (UniProt P08069)
[14] = system: Phosphatidylinositol 4,5-bisphosphate 3-kinase catalytic subunit alpha isoform (Homo sapiens), P42336 [E545K]
[15] = molecular target: Casein kinase II subunit alpha (Homo sapiens) (UniProt P68400)
[16] = molecular target: Ribosomal protein S6 kinase alpha-5 (Homo sapiens) (UniProt O75582)
[17] = system: Receptor-type tyrosine-protein kinase FLT3 (Homo sapiens), P36888 [D835H]
[18] = molecular target: Serine/threonine-protein kinase N2 (Homo sapiens) (UniProt Q16513)
[19] = molecular target: Muscarinic acetylcholine receptor M3 (Homo sapiens) (UniProt P20309); conditions: Compound concentration 10.0 uM
[20] = Compound concentration 1000.0 nM
[21] = Compound concentration 100.0 nM

Mitogen-activated protein kinase kinase kinase 19 (Homo sapiens), sequence (Q56UN5 whole entry): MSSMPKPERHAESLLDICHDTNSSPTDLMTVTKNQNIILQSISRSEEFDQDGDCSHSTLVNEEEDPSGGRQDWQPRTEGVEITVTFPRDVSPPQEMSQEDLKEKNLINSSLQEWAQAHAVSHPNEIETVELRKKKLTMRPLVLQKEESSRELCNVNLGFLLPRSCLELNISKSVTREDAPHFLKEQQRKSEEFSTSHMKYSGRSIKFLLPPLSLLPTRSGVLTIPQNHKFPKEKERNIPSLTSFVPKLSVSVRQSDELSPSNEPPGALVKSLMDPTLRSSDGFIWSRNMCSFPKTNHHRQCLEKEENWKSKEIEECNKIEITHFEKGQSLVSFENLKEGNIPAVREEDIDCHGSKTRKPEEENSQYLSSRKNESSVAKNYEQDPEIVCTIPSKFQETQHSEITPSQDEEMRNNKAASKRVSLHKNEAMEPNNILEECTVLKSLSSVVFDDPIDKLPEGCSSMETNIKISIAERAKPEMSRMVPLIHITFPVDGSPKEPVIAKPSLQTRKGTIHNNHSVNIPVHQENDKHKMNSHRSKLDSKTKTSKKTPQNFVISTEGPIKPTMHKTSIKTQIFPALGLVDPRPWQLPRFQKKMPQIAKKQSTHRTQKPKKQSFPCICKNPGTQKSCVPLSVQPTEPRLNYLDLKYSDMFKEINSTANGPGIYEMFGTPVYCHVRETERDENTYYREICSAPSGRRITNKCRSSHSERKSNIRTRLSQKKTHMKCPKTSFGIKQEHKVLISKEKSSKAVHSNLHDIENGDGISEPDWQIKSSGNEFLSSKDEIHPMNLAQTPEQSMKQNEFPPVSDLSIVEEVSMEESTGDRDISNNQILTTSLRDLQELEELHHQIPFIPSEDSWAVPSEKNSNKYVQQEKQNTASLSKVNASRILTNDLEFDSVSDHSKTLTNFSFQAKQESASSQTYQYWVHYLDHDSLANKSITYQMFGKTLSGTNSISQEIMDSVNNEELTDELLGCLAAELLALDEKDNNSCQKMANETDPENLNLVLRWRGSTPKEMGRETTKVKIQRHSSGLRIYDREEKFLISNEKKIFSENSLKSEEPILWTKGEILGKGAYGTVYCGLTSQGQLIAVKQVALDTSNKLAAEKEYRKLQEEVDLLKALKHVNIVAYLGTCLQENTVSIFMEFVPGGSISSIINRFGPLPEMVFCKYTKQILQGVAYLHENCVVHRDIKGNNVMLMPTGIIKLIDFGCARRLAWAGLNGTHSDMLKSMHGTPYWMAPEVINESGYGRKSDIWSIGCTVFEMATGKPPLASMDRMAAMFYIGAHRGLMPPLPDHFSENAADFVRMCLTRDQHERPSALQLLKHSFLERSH
1-phosphatidylinositol 3-phosphate 5-kinase (Homo sapiens), sequence (Q9Y2I7 whole entry): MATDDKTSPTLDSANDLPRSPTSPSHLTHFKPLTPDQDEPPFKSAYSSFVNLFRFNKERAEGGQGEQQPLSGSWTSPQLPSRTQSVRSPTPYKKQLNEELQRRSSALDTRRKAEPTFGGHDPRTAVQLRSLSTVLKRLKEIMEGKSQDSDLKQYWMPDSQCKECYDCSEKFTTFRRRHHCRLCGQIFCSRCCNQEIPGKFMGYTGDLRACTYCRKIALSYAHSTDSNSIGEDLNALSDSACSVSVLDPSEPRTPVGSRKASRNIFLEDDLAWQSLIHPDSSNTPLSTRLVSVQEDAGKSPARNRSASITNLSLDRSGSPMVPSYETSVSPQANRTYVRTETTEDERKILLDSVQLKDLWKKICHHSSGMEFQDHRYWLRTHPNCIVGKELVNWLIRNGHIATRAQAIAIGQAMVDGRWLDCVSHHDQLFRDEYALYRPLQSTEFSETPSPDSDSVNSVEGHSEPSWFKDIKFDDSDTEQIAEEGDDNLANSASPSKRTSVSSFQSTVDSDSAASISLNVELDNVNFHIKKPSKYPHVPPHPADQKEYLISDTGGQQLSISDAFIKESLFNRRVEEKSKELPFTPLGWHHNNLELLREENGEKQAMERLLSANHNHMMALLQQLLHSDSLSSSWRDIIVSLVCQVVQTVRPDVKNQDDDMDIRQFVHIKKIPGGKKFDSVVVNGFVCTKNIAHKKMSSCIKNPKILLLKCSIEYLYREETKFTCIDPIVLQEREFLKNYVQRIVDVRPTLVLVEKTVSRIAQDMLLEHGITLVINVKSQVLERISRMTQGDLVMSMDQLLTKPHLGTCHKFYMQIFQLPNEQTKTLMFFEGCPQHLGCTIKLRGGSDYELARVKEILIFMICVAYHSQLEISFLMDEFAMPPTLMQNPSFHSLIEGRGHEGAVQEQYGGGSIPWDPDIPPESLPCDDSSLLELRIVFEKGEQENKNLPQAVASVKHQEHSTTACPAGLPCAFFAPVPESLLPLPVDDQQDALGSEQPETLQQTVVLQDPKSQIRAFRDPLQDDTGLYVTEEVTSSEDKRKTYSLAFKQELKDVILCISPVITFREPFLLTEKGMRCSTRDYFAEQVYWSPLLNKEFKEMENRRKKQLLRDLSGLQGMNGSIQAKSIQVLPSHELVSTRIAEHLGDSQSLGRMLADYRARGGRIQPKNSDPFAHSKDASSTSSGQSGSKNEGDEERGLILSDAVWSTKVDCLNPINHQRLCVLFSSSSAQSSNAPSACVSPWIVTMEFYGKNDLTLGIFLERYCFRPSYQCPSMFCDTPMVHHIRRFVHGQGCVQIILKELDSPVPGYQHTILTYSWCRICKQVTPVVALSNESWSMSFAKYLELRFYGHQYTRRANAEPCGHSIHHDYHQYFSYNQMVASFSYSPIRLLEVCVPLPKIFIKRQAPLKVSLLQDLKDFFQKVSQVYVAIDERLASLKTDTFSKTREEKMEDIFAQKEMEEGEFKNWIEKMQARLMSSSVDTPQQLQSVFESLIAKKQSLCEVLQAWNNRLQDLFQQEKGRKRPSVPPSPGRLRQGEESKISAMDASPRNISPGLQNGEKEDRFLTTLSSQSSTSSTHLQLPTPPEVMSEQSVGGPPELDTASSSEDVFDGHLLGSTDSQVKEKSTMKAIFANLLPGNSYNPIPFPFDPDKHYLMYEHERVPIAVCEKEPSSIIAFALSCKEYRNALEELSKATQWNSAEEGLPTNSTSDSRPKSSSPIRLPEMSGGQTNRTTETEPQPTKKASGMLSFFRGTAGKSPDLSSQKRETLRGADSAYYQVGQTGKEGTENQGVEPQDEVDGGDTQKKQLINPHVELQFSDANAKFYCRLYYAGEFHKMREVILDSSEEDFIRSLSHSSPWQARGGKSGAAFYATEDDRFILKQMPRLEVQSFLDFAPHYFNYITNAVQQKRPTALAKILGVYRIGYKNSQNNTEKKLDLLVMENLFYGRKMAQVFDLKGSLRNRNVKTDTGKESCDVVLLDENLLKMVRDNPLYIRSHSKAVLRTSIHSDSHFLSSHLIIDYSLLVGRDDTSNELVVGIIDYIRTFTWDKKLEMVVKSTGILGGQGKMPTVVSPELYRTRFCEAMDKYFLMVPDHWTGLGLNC
Phosphatidylinositol 4,5-bisphosphate 3-kinase catalytic subunit gamma isoform (Homo sapiens), sequence (P48736 whole entry, looked up, canonical isoform): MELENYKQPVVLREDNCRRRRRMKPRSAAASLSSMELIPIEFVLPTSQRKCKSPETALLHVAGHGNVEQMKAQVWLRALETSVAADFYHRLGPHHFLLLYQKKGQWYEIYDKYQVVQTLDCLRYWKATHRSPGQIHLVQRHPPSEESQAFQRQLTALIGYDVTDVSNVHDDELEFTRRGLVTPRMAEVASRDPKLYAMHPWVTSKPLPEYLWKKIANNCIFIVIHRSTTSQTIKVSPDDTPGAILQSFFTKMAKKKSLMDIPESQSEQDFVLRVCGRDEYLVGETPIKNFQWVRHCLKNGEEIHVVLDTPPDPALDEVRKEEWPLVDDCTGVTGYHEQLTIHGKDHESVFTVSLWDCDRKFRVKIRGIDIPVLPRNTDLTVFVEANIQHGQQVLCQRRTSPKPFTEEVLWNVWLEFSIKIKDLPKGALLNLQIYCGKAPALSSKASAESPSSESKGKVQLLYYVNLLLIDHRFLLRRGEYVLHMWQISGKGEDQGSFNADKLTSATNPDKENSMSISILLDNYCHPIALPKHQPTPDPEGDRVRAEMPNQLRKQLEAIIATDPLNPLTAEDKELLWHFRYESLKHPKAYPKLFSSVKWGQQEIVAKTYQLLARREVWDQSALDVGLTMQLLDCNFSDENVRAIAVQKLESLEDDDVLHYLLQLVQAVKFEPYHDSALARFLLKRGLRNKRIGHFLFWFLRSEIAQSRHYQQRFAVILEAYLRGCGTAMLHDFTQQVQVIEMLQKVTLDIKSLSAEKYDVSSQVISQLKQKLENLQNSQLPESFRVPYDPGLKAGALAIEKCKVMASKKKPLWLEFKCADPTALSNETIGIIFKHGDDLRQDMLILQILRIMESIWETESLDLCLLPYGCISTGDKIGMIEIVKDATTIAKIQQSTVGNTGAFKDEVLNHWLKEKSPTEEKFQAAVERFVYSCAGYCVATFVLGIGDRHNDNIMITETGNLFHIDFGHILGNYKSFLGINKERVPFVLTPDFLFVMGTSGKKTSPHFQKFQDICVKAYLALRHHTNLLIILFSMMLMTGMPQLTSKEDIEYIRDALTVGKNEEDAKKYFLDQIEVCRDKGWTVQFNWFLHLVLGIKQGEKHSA
Muscarinic acetylcholine receptor M3 (Homo sapiens), sequence (P20309 whole entry, looked up): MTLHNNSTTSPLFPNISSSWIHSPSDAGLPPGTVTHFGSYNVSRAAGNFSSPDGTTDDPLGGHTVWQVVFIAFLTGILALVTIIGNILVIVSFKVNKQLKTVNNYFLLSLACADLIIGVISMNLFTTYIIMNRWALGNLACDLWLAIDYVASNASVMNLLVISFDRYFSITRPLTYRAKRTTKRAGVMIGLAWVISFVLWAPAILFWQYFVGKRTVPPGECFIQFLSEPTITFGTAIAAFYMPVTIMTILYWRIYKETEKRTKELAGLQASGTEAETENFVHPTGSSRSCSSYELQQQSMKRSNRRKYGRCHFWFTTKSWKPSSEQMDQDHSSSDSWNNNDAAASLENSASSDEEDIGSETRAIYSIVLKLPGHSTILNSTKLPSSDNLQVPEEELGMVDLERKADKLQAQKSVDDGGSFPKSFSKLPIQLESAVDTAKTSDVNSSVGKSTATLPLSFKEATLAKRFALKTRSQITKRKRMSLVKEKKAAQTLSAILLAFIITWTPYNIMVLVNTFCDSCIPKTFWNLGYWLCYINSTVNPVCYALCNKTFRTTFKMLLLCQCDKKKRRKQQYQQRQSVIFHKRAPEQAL

C[C@@H]1CN(c2cc(-c3nn(C)c4ccc(OC5(C)CC5)cc34)ncn2)C[C@H](C)O1 [MLi-2-NC]
inactive: residual activity [1, 20] 78% | residual activity [2, 20] 80% | residual activity [3, 20] 77% | residual activity [4, 20] 84% | residual activity [5, 20] 100% | residual activity [6, 20] 74% | residual activity [7, 20] 91% | residual activity [8, 20] 100% | residual activity [9, 20] 96% | residual activity [10, 20] 68% | residual activity [11, 20] 100% | residual activity [12, 20] 100% | residual activity [13, 20] 100% | residual activity [14, 20] 79% | residual activity [15, 20] 76% | residual activity [16, 20] 79% | residual activity [17, 20] 84% | residual activity [18, 20] 100% | inhibition [19] 6.03%

C[C@@H]1CN(c2cc(-c3n[nH]c4ccc(OC5(C)CC5)cc34)ncn2)C[C@H](C)O1 [MLi-2]
inactive: residual activity [1, 21] 90% | residual activity [2, 21] 73% | residual activity [3, 21] 100% | residual activity [4, 21] 80% | residual activity [5, 21] 72% | residual activity [6, 21] 72% | residual activity [7, 21] 73% | residual activity [8, 21] 73% | residual activity [9, 21] 99% | residual activity [10, 21] 84% | residual activity [11, 21] 94% | residual activity [12, 21] 68% | residual activity [13, 21] 100% | residual activity [14, 21] 65% | residual activity [15, 21] 66% | residual activity [16, 21] 89% | residual activity [17, 21] 100% | residual activity [18, 21] 89% | inhibition [19] 7.93%

From ChEMBL document CHEMBL4507291 (2021)
